A short description of series [1]: Further in vitro degradation assay, human primary hepatocytes. To be noted: human, hepatocytes. How it is done:
(§1) In a further assay, isoxazolines (fluralaner and afoxolaner) and control compounds (7-Ethoxycoumarin and 7-Hydroxycoumarin [Sigma]) were dissolved in DMSO at 10 and 30 mM respectively, then diluted first 20-fold with 45% methanol in water and a further 10-fold in pre-warmed Williams' Medium E. Cryopreserved human, dog and rat hepatocytes (In Vitro Technologies) were thawed, isolated by percoll gradient and suspended in Williams' Medium E. Cells were then dispensed into the wells of 96-well plates containing 10 μL of diluted compounds, to reach a final concentration of 0.5×10^6 cells/mL and 1 μM of isoxazolines or 3 μM of control. After an incubation at 37° C. of 0, 15, 30, 60 or 90 minutes, the reaction was stopped with acetonitrile. The samples were then shaken for 10 minutes at 500 rpm and centrifuged at 3220 g for 20 minutes. Supernatants were transferred and stored at 4° C. until LC-MS-MS analysis.

Series [2] is described as follows: Further in vitro degradation assay, dog primary hepatocytes. The following applies: hepatocytes. How it is done: as §1
Series [3] is described as follows: Further in vitro degradation assay, rat primary hepatocytes. The following applies: hepatocytes. How it is done: as §1
For a further series, the system named is Anopheles gambiae Kisumu. The series is described as follows: WHO paper contact assay, Anopheles gambiae Kisumu. In kind it is in vivo. The following applies: papers 0.75% permethrin, 0.05% deltamethrin, 4% DDT, 0.1% bendiocarb, 1.0% fenitrothion, 4% dieldrin. How it is done: (§2) Mosquito colonies utilized in the examples were generally maintained as described: The colony of Anopheles stephensi (Sind-Kasur Nijmegen strain) was maintained at the Radboud University Medical Center, Nijmegen, The Netherlands, by 30° C. and 70-80% humidity and on a 12/12 hour day/night cycle. The Anopheles gambiae strains Kisumu and Tiassalé and the Aedes aegypti strains New Orleans and Cayman were reared at the Liverpool Insect Testing Establishment, Liverpool, UK. Kisumu is an insecticide susceptible lab strain. New Orleans was originally colonized by the Centers for Disease Control and Prevention. The Tiassalé strain was colonized from Southern Cote D'Ivoire where resistance to all classes of insecticide is found and the Cayman strain was colonized from Grand Cayman, where Aedes aegypti are highly resistant to DDT and pyrethroid insecticides. Both resistant strains are routinely selected with insecticides to ensure the maintenance of resistance, 0.75% permethrin for Cayman and 0.05% deltamethrin for Tiassalé, and profiled for resistance to a range of insecticides, including 4% dieldrin, to which Tiassalé is resistant but Cayman is susceptible.
(§3) Without being bound by theory, isoxazolines occupy a binding site that is distinct from the targets of known modulators of ionotropic GABA receptors. In line with this notion, fluralaner and afoxolaner were fully active against the Anopheles gambiae Tiassalé strain that carries the resistance-to-dieldrin (rdl) mutation in the GABA receptor. In addition, they were equipotent against pyrethroid- and carbamate-resistant strains carrying mutations in the kdr sodium channel and acetylcholine esterase (Ace-1) genes respectively. […] The results are shown as percentage of survival (on over 100 mosquitoes for each case), the bold and underlined numbers indicate values that fall within the criteria for resistance.

Series [4] concerns Anopheles gambiae Tiassale 13. The series is described as follows: WHO paper contact assay, Anopheles gambiae Tiassale. The following applies: papers 0.75% permethrin, 0.05% deltamethrin, 4% DDT, 0.1% bendiocarb, 1.0% fenitrothion, 4% dieldrin. In kind it is in vivo. How it is done:
as §2, §3

The subject of series [5] is Aedes aegypti New Orleans. The series is described as follows: WHO paper contact assay, Aedes aegypti New Orleans. Type of series: in vivo. To be noted: papers 0.75% permethrin, 0.05% deltamethrin, 4% DDT, 0.1% bendiocarb, 1.0% fenitrothion, 4% dieldrin. How it is done: as §2, §3
The next series concerns Aedes aegypti Cayman. As to the kind of experiment: WHO paper contact assay, Aedes aegypti Cayman. Type of series: in vivo. The following applies: papers 0.75% permethrin, 0.05% deltamethrin, 4% DDT, 0.1% bendiocarb, 1.0% fenitrothion, 4% dieldrin. How it is done:
as §2, §3

Series [6] deals with Anopheles gambiae (Tiassalé). As to the kind of experiment: Membrane feeding, Anopheles gambiae Tiassalé strain (rdl mutation). Type of series: in vivo. The following applies: Tiassale strain; membrane feeding. How it is done:
as §2
Isoxazoline compounds fluralaner or afoxolaner were reconstituted in 50% human serum and 50% red blood cells and administered to adult Anopheles stephensi mosquitos via standard membrane feeding. Lethality was assessed 1, 2 or 8 days after exposure. FIG. 2A represents a plot of viable Anopheles stephensi versus fluralaner concentration at each day of assessment. FIG. 2B represents a plot of viable Anopheles stephensi versus afoxolaner concentration at each day of assessment. […] The IC50 values of each compound for Anopheles death were determined by logistic regression using a least squares method to find the best fit and are shown in Table 1. IC50 values were calculated by applying a four-parameter logistic regression model using a least-squares method to find the best fit using the Graphpad Prism 5.0 software package.
The membrane feeding experiment described was repeated using the insecticide dieldrin on two strains of Anopheles gambiae: Kisumu and Tiassale. The Tiassale strain has a mutation in the resistance to dieldrin (rdl) locus, which codes for γ-aminobutyric acid (GABA) receptor. The Tiassale strain was resistant to pyrethroids, carbamate, DDT and dieldrin (knockdown resistance (kdr), Ace and rdl mutations). The Kisumu strain was susceptible to killing by all tested insecticides. FIG. 3A represents a plot of percentage survival of Kisumu and Tiassale strains of Anopheles gambiae versus dieldrin concentration. FIG. 3B represents a plot of survival of the Kisumu and Tiassale strains at 10 μM dieldrin. […] Both figures indicate that the dose-response in systemic feed experiment performed here in allows for identification of a resistance profile.
The feed experiment in Anopheles gambiae was repeated using the isoxazoline compounds fluralaner and afoxolaner to determine if the rdl mutation confers resistance to the isoxazoline insecticides. Isoxazoline insecticides target Rdl, but in a location thought to be different from dieldrin. The mosquitos were fed fluralaner or afoxolaner at various concentrations and lethality was assessed after 24 hours. FIG. 4A represents a plot of percentage survival of Kisumu and Tiassale strains of Anopheles gambiae versus fluralaner concentration. FIG. 4B represents a plot of percentage survival of Kisumu and Tiassale strains of Anopheles gambiae versus afoxolaner concentration.

For the next series, the system named is malaria transmission. The following applies: cited from earlier work.

What is called half-life is the time needed for the level to fall by half in the phase considered. The term hepatocyte CLint denotes the rate of metabolic loss divided by the concentration. High values mean faster metabolism, low ones greater metabolic stability.

As to `O=c1ccc2ccc(O)cc2o1` [7-Hydroxycoumarin], the half-life in series [1] is 14.7 min; in series [2] it was 20.4 min; in [3], 4.8 min. Moreover, the hepatocyte CLint in series [1] was determined as 94.1 µL/min/1e6 cells; in [2], 68.1 µL/min/1e6 cells; in series [3] it was 290 µL/min/1e6 cells.
As to `Clc1ccc(C(c2ccc(Cl)cc2)C(Cl)(Cl)Cl)cc1` [DDT], the percentage of survival in the series with Anopheles gambiae Kisumu turned out to be 100%; in series [4] it was 3%; in series [5], 100%; in the series on Aedes aegypti Cayman, 0%.
Take `ClC1=C(Cl)[C@]2(Cl)[C@@H]3[C@@H]4C[C@@H]([C@H]5O[C@@H]45)[C@@H]3[C@@]1(Cl)C2(Cl)Cl` [Dieldrin]: the “resistance of strain to killing (in words)” value in series [6] is on record as “confers resistance to killing by dieldrin”. In addition, the percentage of survival with Anopheles gambiae Kisumu is on record as 96%; in series [4], 21%; in series [5], 100%; with Aedes aegypti Cayman, 95%.
As for `CC1(C)C(C=C(Cl)Cl)C1C(=O)OCc1cccc(Oc2ccccc2)c1` (stereo not shown) [Permethrin], the percentage of survival in the series on Anopheles gambiae Kisumu is on record as 100%; in [4] it was 3%; in series [5] it was 100%; in the series with Aedes aegypti Cayman it was 7%.
`CNC(=O)Oc1cccc2c1OC(C)(C)O2` [Bendiocarb]: the percentage of survival in the series on Anopheles gambiae Kisumu came to 100%; in series [4], 11%; in series [5], 27%; in the series with Aedes aegypti Cayman, 20%.
As to ivermectin, in the series on malaria transmission (MDA studies), the “estimated reduction in new malaria cases in children under 5” value was 16% and the “reduction in infectious Anopheles gambiae” value is listed as around 80%. The “estimated reduction in transmission potential” value with malaria transmission (co-treatment with artemether-lumefantrine, effect short-lived) is on record as 35%.
For `COP(=S)(OC)Oc1ccc([N+](=O)[O-])c(C)c1` [Fenitrothion], the percentage of survival in the series on Anopheles gambiae Kisumu was found to be 100%; in series [4], 96%; in series [5], 100%; in the series with Aedes aegypti Cayman, 100%.
For the compound `CCOc1ccc2ccc(=O)oc2c1` [7-Ethoxycoumarin], the half-life in series [1] is 20.1 min; in series [2] (dog), 14 min; in series [3] (rat), 61.8 min. Also, the intrinsic metabolic clearance (hepatocyte CLint) in series [1] was found to be 69.1 µL/min/1e6 cells; in series [2] (dog), 99.3 µL/min/1e6 cells; in series [3] (rat) it was 22.4 µL/min/1e6 cells.
Turning to `CC1(C)[C@H](C(=O)O[C@H](C#N)c2cccc(Oc3ccccc3)c2)[C@@H]1C=C(Br)Br` [Deltamethrin], the percentage of survival in the series with Anopheles gambiae Kisumu is listed as 100%; in [4] it was 10%; in series [5], 100%; in the series on Aedes aegypti Cayman, 36%.

These data come from US20200061026A1, “METHODS AND COMPOSITIONS FOR PREVENTING VECTOR-BORNE DISEASE TRANSMISSION” (The Scripps Research Institute, priority 2016, published 2020).
